# Patent publication US20240173255A1, “Polymeric Micelle Coated with Chain-Like Poorly Soluble Drug, Preparation Method and Application” (Hangzhou Hanjing Biotechnology Co., Ltd, priority 2021, published 2024)
# How the values were obtained:
# [1] = Water solubility stated in background; conditions: background statement
# [2] = Solubility of series A to E drugs in water and 10% Soluplus solution; format: physicochemical; conditions: for Solubility in 10% Soluplus: 10% Soluplus solution
# Excerpt: The solubilities of the poorly soluble chain-like drugs of the series A to E according to the present disclosure in water and a 10% Soluplus solution are shown in Table 2.
# [3] = Solubility of compound CPD4 in different solvents or carriers (HPLC of supernatant); format: physicochemical
# Procedure: Taking the symmetric diselenoline molecule CPD4 from series A prepared according to Example 1 as an example, solubilities in different solvents and carriers were measured separately. A test method was conducted as follows: 1 mg of the compound was added into 1 mL of different solvents or carriers separately, ultrasonicated in a water bath for 10 min to fully dissolve the compound to obtain a mixture, and the mixture was stirred at ambient temperature for 12 h, and centrifuged, and a compound concentration in a resulting supernatant was determined by HPLC.
# [4] = Sodium acetate buffer (pH = 4.5)
smiles,measurement,setting,value
COc1ccc2[se]n(CCCCCCn3[se]c4ccc(O)cc4c3=O)c(=O)c2c1,water solubility,[1],3.3 µg/mL
O=c1c2ccccc2[se]n1CCCn1[se]c2ccccc2c1=O [CPD1],Solubility in 10% Soluplus,[2],200 µg/mL
same,Solubility in water,[2],4 µg/mL
O=c1c2ccccc2[se]n1CCCCn1[se]c2ccccc2c1=O [CPD2],Solubility in 10% Soluplus,[2],200 µg/mL
same,Solubility in water,[2],1 µg/mL
O=c1c2ccccc2[se]n1CCCCCn1[se]c2ccccc2c1=O [CPD3],Solubility in 10% Soluplus,[2],300 µg/mL
same,Solubility in water,[2],1 µg/mL
O=c1c2ccccc2[se]n1CCCCCCn1[se]c2ccccc2c1=O [CPD4],Solubility in 10% Soluplus,[2],500 µg/mL
same,Solubility in water,[2],1 µg/mL
same,Dissolution multiple,[3]; Acetone,275
same,Solubility,[3]; Acetone,440 ± 40 µg/mL
same,Dissolution multiple,[3]; Acetonitrile,263
same,Solubility,[3]; Acetonitrile,420 ± 5 µg/mL
same,Dissolution multiple,[3]; DMF,10819
same,Solubility,[3]; DMF,17310 ± 320 µg/mL
same,Dissolution multiple,[3]; DMSO,21131
same,Solubility,[3]; DMSO,33810 ± 700 µg/mL
same,Dissolution multiple,[3]; Dichloromethane,1981
same,Solubility,[3]; Dichloromethane,3170 ± 160 µg/mL
same,Dissolution multiple,[3]; Ethanol,800
same,Solubility,[3]; Ethanol,1280 ± 40 µg/mL
same,Dissolution multiple,[3]; Ethyl acetate,150
same,Solubility,[3]; Ethyl acetate,240 ± 20 µg/mL
same,Dissolution multiple,[3]; Hydrochloric acid (pH = 1.2),1.38
same,Solubility,[3]; Hydrochloric acid (pH = 1.2),2.2 ± 0.26 µg/mL
same,Dissolution multiple,[3]; Isopropanol,613
same,Solubility,[3]; Isopropanol,980 ± 60 µg/mL
same,Dissolution multiple,[3]; Liposome: Cholesterol,46
same,Solubility,[3]; Liposome: Cholesterol,60 ± 1 µg/mL
same,Dissolution multiple,[3]; Liposome: Lecithin,40
same,Solubility,[3]; Liposome: Lecithin,40 ± 5 µg/mL
same,Dissolution multiple,[3]; Methanol,881
same,Solubility,[3]; Methanol,1410 ± 130 µg/mL
same,Dissolution multiple,[3]; PBS (pH = 7.4),0.5
same,Solubility,[3]; PBS (pH = 7.4),0.8 ± 0.15 µg/mL
same,Dissolution multiple,[3]; [4],0.81
same,Solubility,[3]; [4],1.3 ± 0.47 µg/mL
same,Dissolution multiple,[3]; Solid adjuvant F68,8.1
same,Solubility,[3]; Solid adjuvant F68,13 ± 3 µg/mL
same,Dissolution multiple,[3]; Solid adjuvant F127,61
same,Solubility,[3]; Solid adjuvant F127,98 ± 8 µg/mL
same,Dissolution multiple,[3]; Solid adjuvant HP-β-CD,38
same,Solubility,[3]; Solid adjuvant HP-β-CD,60 ± 3 µg/mL
same,Dissolution multiple,[3]; Solid adjuvant PEG2000,4.4
same,Solubility,[3]; Solid adjuvant PEG2000,7 ± 2 µg/mL
same,Dissolution multiple,[3]; Solid adjuvant PEG4000,5
same,Solubility,[3]; Solid adjuvant PEG4000,8 ± 1 µg/mL
same,Dissolution multiple,[3]; Solid adjuvant PEG6000,3.8
same,Solubility,[3]; Solid adjuvant PEG6000,6 ± 1 µg/mL
same,Dissolution multiple,[3]; Solid adjuvant SBE-β-CD,44
same,Solubility,[3]; Solid adjuvant SBE-β-CD,71 ± 4 µg/mL
same,Dissolution multiple,[3]; Soluplus,400
same,Solubility,[3]; Soluplus,515 ± 8 µg/mL
same,Dissolution multiple,[3]; n-Octanol,662
same,Solubility,[3]; n-Octanol,1060 ± 80 µg/mL
same,Solubility,[3]; water,1.6 ± 0.05 µg/mL
O=c1c2ccccc2[se]n1CCCCCCCn1[se]c2ccccc2c1=O [CPD5],Solubility in 10% Soluplus,[2],500 µg/mL
same,Solubility in water,[2],1 µg/mL
O=c1c2cccc(F)c2[se]n1CCCCn1[se]c2c(F)cccc2c1=O [CPD7],Solubility in 10% Soluplus,[2],250 µg/mL
same,Solubility in water,[2],2 µg/mL
O=c1c2cccc(F)c2[se]n1CCCCCn1[se]c2c(F)cccc2c1=O [CPD8],Solubility in 10% Soluplus,[2],300 µg/mL
same,Solubility in water,[2],1 µg/mL
O=c1c2cccc(F)c2[se]n1CCCCCCn1[se]c2c(F)cccc2c1=O [CPD9],Solubility in 10% Soluplus,[2],800 µg/mL
same,Solubility in water,[2],1 µg/mL
O=c1c2cccc(F)c2[se]n1CCCCCCCn1[se]c2c(F)cccc2c1=O [CPD10],Solubility in 10% Soluplus,[2],600 µg/mL
same,Solubility in water,[2],1 µg/mL
COc1ccc2[se]n(CCCn3[se]c4ccc(O)cc4c3=O)c(=O)c2c1 [CPD11],Solubility in 10% Soluplus,[2],>1000 µg/mL
same,Solubility in water,[2],15 µg/mL
COc1ccc2[se]n(CCCCCn3[se]c4ccc(O)cc4c3=O)c(=O)c2c1 [CPD13],Solubility in 10% Soluplus,[2],>1000 µg/mL
same,Solubility in water,[2],10 µg/mL
COc1ccc2[se]n(CCCCCCCn3[se]c4ccc(O)cc4c3=O)c(=O)c2c1 [CPD15],Solubility in 10% Soluplus,[2],>1000 µg/mL
same,Solubility in water,[2],10 µg/mL
COc1ccc2[se]n(CCCCn3[se]c4ccc(OCCCN=[N+]=[N-])cc4c3=O)c(=O)c2c1 [CPD17],Solubility in 10% Soluplus,[2],>1000 µg/mL
same,Solubility in water,[2],<10 µg/mL
COc1ccc2[se]n(CCCCCn3[se]c4ccc(OCCCN=[N+]=[N-])cc4c3=O)c(=O)c2c1 [CPD18],Solubility in 10% Soluplus,[2],>1000 µg/mL
same,Solubility in water,[2],<10 µg/mL
COc1ccc2[se]n(CCCCCCn3[se]c4ccc(OCCCN=[N+]=[N-])cc4c3=O)c(=O)c2c1 [CPD19],Solubility in 10% Soluplus,[2],>1000 µg/mL
same,Solubility in water,[2],<10 µg/mL
COc1ccc2[se]n(CCCCCCCn3[se]c4ccc(OCCCN=[N+]=[N-])cc4c3=O)c(=O)c2c1 [CPD20],Solubility in 10% Soluplus,[2],>1000 µg/mL
same,Solubility in water,[2],<10 µg/mL
